Data from publication PMC8799717, “Pharmacological targeting PIKfyve and tubulin as an effective treatment strategy for double-hit lymphoma” (Cell Death Discovery, 2022).

Tests used:
Assay in all cases: biochemical
Design in all cases: KINOMEscan active-site-directed competition binding panel, 468 kinases, percent of DMSO control at 1 uM
Conditions in all cases: KINOMEscan binding, percent of DMSO control; read-out: Ctrl%
[1] = molecular target: T1, ABL1(Q252H)-phosphorylated (Homo sapiens, UniProt P00519, Q252H)
T1 construct: phosphorylated

[2] = molecular target: T2, ABL1-phosphorylated (Homo sapiens, UniProt P00519)
T2 construct: phosphorylated

[3] = molecular target: AXL (Homo sapiens, UniProt P30530)
[4] = molecular target: T3, CDC2L2 (Homo sapiens, UniProt Q9UQ88)
T3 construct: gene CDK11A

[5] = molecular target: CDK7 (Homo sapiens, UniProt P50613)
[6] = molecular target: CLK1 (Homo sapiens, UniProt P49759)
[7] = molecular target: CSF1R (Homo sapiens, UniProt P07333)
[8] = molecular target: CSK (Homo sapiens, UniProt P41240)
[9] = molecular target: T4, DCAMKL3 (Homo sapiens, UniProt Q9C098)
T4 construct: gene DCLK3

[10] = molecular target: EPHA4 (Homo sapiens, UniProt P54764)
[11] = molecular target: FGFR2 (Homo sapiens, UniProt P21802)
[12] = molecular target: FLT1 (Homo sapiens, UniProt P17948)
[13] = molecular target: GAK (Homo sapiens, UniProt O14976)
[14] = molecular target: MAK (Homo sapiens, UniProt P20794)
[15] = molecular target: MAP4K2 (Homo sapiens, UniProt Q12851)
[16] = molecular target: NEK1 (Homo sapiens, UniProt Q96PY6)
[17] = molecular target: NEK7 (Homo sapiens, UniProt Q8TDX7)
[18] = molecular target: T5, PFTAIRE2 (Homo sapiens, UniProt Q96Q40)
T5 construct: gene CDK15

[19] = molecular target: PHKG2 (Homo sapiens, UniProt P15735)
[20] = molecular target: PIK3CD (Homo sapiens, UniProt O00329)
[21] = molecular target: T6, PIP5K2B (Homo sapiens, UniProt P78356)
T6 construct: gene PIP4K2B

[22] = molecular target: T7, RSK1(Kin.Dom.1-N-terminal) (Homo sapiens, UniProt Q15418)
T7 construct: gene RPS6KA1; Kin.Dom.1-N-terminal

[23] = molecular target: TLK2 (Homo sapiens, UniProt Q86UE8)
[24] = molecular target: ZAP70 (Homo sapiens, UniProt P43403)

Sequence of GAK (O14976 whole entry): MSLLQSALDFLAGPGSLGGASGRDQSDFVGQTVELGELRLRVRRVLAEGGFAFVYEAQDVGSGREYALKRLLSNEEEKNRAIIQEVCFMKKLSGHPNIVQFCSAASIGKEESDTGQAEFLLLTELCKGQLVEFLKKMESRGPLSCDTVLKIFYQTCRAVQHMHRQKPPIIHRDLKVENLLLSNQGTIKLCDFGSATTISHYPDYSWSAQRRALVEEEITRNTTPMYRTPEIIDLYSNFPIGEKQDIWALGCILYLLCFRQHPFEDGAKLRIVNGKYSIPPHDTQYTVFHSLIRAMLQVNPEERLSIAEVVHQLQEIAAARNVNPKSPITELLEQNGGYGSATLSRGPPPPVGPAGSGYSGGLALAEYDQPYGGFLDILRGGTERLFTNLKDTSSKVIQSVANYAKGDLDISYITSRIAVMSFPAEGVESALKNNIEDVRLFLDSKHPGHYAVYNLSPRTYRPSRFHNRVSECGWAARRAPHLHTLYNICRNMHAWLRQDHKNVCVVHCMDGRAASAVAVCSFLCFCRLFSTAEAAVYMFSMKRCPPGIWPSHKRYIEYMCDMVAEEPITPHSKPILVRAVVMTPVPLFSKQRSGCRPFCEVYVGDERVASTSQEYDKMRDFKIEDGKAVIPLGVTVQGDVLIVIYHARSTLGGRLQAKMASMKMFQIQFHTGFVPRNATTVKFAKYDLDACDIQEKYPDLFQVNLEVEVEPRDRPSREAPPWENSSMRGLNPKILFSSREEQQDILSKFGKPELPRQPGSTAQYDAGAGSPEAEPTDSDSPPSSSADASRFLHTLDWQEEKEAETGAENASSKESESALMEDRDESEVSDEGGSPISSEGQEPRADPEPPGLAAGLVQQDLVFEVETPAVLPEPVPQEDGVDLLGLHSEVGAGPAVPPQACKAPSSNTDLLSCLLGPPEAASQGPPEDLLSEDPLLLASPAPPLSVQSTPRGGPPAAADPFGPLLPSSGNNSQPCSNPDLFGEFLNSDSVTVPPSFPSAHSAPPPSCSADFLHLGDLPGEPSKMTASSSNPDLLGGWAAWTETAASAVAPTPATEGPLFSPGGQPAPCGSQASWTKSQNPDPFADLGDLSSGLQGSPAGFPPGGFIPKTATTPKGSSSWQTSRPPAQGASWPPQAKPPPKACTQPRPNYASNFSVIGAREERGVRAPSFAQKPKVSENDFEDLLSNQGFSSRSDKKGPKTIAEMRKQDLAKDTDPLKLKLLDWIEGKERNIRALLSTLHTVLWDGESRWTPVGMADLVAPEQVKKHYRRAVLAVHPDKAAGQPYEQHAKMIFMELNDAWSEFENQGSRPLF
T4 sequence (Q9C098 whole entry): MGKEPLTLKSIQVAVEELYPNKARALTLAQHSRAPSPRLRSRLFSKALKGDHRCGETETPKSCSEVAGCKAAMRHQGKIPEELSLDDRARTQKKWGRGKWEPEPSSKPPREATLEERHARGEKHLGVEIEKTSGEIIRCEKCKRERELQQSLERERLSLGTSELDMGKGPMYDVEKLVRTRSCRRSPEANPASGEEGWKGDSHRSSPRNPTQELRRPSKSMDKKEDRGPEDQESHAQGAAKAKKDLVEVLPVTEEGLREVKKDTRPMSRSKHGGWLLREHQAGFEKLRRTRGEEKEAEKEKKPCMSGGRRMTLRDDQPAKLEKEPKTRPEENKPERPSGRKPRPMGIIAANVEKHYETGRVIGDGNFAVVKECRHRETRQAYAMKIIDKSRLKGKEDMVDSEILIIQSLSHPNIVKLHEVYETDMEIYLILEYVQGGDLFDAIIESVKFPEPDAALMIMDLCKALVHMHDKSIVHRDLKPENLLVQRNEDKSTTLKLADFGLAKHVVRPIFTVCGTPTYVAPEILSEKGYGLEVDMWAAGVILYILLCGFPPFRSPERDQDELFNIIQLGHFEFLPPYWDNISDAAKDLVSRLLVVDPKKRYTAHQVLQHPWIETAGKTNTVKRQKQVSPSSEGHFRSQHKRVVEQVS
Sequence of PIK3CD (O00329 whole entry): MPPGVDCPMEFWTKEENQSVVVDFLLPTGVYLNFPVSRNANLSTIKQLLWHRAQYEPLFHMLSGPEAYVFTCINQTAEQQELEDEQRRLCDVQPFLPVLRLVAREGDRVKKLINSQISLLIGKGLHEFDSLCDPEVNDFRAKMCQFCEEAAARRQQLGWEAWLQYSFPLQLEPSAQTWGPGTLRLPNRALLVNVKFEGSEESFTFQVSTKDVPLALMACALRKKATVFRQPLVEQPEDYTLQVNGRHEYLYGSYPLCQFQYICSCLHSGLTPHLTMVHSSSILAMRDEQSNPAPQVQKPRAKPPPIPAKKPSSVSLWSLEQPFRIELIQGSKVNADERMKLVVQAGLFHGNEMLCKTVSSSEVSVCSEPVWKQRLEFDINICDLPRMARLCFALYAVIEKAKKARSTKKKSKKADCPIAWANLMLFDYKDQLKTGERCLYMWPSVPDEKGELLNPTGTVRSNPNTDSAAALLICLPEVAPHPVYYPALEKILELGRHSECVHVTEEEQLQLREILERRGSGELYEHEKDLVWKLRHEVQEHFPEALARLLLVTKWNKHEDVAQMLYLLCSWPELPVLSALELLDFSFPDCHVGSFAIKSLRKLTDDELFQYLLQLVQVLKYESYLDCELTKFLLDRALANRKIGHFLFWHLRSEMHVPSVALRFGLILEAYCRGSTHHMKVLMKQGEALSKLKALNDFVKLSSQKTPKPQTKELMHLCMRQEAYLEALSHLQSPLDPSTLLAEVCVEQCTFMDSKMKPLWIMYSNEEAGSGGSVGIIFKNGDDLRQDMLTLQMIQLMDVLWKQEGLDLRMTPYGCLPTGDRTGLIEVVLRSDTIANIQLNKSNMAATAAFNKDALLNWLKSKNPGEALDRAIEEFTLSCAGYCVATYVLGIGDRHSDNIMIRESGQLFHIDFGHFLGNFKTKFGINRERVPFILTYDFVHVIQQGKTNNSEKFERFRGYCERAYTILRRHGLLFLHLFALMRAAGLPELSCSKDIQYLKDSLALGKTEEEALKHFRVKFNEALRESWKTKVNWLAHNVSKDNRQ
T3 sequence (Q9UQ88 whole entry): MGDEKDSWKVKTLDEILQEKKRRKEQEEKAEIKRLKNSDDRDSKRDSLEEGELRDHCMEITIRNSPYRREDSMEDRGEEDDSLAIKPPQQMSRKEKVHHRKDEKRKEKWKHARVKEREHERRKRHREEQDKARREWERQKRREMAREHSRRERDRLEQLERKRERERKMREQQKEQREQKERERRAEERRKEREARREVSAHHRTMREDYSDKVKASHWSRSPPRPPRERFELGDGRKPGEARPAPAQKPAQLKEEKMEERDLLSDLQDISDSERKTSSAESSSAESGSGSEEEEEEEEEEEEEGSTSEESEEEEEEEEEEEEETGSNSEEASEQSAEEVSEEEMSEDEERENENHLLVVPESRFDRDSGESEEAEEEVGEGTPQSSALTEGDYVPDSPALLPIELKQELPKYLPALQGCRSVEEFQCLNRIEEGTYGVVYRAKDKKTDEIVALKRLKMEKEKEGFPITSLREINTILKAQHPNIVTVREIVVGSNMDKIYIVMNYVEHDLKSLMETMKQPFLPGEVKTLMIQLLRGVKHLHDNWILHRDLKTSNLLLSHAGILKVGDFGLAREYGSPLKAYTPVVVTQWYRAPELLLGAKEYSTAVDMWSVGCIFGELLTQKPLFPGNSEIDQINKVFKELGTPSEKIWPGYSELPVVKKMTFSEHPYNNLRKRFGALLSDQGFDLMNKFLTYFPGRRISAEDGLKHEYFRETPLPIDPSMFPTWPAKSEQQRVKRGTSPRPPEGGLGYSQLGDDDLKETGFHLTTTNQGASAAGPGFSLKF
Sequence of CSF1R (P07333 whole entry): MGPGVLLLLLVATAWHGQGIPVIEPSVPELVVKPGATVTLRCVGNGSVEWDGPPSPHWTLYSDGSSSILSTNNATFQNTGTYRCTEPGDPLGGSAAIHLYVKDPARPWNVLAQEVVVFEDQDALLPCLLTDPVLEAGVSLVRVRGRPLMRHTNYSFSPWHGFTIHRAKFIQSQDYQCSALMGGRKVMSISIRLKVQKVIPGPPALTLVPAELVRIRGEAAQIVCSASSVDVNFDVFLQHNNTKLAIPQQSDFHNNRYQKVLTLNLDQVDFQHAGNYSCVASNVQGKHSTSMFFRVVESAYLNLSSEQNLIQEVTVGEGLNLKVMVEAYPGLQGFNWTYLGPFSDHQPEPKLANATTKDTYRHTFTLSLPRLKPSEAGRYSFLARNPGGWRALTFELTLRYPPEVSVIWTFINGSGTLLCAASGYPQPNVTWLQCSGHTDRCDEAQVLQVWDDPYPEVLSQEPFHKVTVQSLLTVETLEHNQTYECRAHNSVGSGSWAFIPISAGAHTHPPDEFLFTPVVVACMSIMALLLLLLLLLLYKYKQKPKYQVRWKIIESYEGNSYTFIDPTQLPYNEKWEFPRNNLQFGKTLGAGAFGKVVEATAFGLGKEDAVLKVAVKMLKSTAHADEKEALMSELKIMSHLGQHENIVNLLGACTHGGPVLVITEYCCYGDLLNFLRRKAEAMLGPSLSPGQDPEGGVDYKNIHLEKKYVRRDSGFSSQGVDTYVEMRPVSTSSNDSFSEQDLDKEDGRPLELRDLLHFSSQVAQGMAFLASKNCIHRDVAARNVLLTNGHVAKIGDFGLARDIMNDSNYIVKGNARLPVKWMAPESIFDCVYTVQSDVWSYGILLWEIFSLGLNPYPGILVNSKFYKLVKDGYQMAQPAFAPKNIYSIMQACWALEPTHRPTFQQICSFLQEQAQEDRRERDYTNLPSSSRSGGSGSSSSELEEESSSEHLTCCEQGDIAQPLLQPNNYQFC
Sequence of CDK7 (P50613 whole entry): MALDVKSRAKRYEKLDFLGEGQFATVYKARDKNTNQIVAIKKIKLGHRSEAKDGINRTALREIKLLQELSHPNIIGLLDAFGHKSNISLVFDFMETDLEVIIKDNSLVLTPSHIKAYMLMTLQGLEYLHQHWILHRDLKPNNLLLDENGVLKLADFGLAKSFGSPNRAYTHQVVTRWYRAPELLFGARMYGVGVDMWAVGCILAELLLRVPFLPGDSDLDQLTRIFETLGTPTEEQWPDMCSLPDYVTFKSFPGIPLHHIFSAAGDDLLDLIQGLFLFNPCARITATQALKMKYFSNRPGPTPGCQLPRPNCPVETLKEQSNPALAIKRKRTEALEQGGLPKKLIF

## Cc1ccc(NC(=O)c2cccc(C(F)(F)F)c2)cc1Nc1cc(-c2cccnc2)nc2[nH]ccc12 [HZX-02-059]
[1]
  remaining binding at 1 µM: 61%
[2]
  remaining binding at 1 µM: 55%
[3]
  remaining binding at 1 µM: 90%
[4]
  remaining binding at 1 µM: 80%
[5]
  remaining binding at 1 µM: 69%
[6]
  remaining binding at 1 µM: 96%
[7]
  remaining binding at 1 µM: 6.1%
[8]
  remaining binding at 1 µM: 91%
[9]
  remaining binding at 1 µM: 81%
[10]
  remaining binding at 1 µM: 8.3%
[11]
  remaining binding at 1 µM: 95%
[12]
  remaining binding at 1 µM: 96%
[13]
  remaining binding at 1 µM: 91%
[14]
  remaining binding at 1 µM: 95%
[15]
  remaining binding at 1 µM: 96%
[16]
  remaining binding at 1 µM: 78%
[17]
  remaining binding at 1 µM: 73%
[18]
  remaining binding at 1 µM: 81%
[19]
  remaining binding at 1 µM: 92%
[20]
  remaining binding at 1 µM: 97%
[21]
  remaining binding at 1 µM: 76%
[22]
  remaining binding at 1 µM: 72%
[23]
  remaining binding at 1 µM: 89%
[24]
  remaining binding at 1 µM: 76%
